Measurements: US20090221666A1, “STILBENE DERIVATIVES AND METHODS OF INHIBITING CANCER CELL GROWTH AND MICROBIAL GROWTH” (priority 2005, published 2009)
≈ marks a conversion by molar mass, not a printed value. Where a name gives a salt, the structure may show the parent alone. Read-outs that look alike come from different tables or passages of the source.

How the values were obtained:
[1] = tested on: Bovine brain tubulin (colchicine site); experiment: Inhibition of [3H]colchicine binding to tubulin; conditions: 1.0 μM tubulin, 5.0 μM [3H]colchicine
Experimental: (§1) Bovine brain tubulin was prepared and the tubulin assembly and colchicine binding assays were performed as described previously. In the assembly assay, reaction mixtures contained 1.0 mg/mL (10 μM) tubulin and varying concentrations of potential inhibitors. In the colchicine binding assay reaction mixtures contained 0.1 mg/mL (1.0 μM) tubulin, 5.0 μM [^3H]colchicine, and potential inhibitor as indicated. The vinblastine binding assay was performed as described previously for GTP binding by centrifugal gel filtration, except that a Beckman Allegra 6KR centrifuge equipped with a GH-3.8A swinging bucket rotor was used and the syringe-columns were centrifuged at 2,000 rpm (Ref. 38-41). Reaction mixtures contained 0.5 mg/mL (5.0 μM) tubulin, 5 μM [^3H]vinblastine, potential inhibitor as indicated, 0.5 mM MgCl2, 0.1 M 4-morpholineethanesulfonate (1.0 M stock solution adjusted to pH 6.9 with NaOH, and 4% (v/v) dimethyl sulfoxide. Incubation (30 min) and centrifugal gel filtration were performed at room temperature (20-22° C.).

[2] = tested on: Bovine brain tubulin (vinca domain); experiment: Inhibition of [3H]vinblastine binding to tubulin; conditions: 5.0 μM tubulin, 5 μM [3H]vinblastine
Experimental: as §1

Bovine brain tubulin = experiment: Inhibition of tubulin assembly; format: biochemical; conditions: 1.0 mg/mL (10 μM) tubulin; read-out: Inhibition of tubulin assembly IC50 (μM) ± SD
Experimental: as §1

[3] = tested on: Enterococcus faecalis ATCC 29212; experiment: Broth microdilution assay, Enterococcus faecalis; format: cell-based
Source text: (§2) Compounds were screened in broth microdilution assays according to National Committee for Clinical Laboratory Standards (Ref. 43-44). Assays were repeated at least twice on separate days.

[4] = Solubility in distilled water; format: physicochemical; conditions: for Solubility / solubility: 1 mL distilled water at 25° C.
[5] = tested on: Neisseria gonorrhoeae ATCC 49226; experiment: Broth microdilution assay, Neisseria gonorrhoeae; format: cell-based
Source text: as §2

[6] = tested on: P388 lymphocytic leukemia cell line; format: cell-based; conditions: murine P388 lymphocytic leukemia cell line
Experimental: (§3) Cytotoxicity assays were performed by the sulforhodamine B method, in which inhibition of formation of cellular protein is measured (Ref. 42). The mitotic index of MCF-7 breast cancer cells was determined as described previously (Ref. 27), except that cells were incubated in the presence of drug for 16 h prior to addition of the DNA stain.

NCI-H460 = experiment: cells; format: cell-based, human; conditions: for GI50: Homo sapiens, read-out: Lung-NSC NCI-H460 GI50
Experimental: as §3

SF-295 = experiment: cells; format: cell-based, human; conditions: for GI50: Homo sapiens, read-out: CNS SF-295 GI50
Experimental: as §3

MCF-7 = experiment: cells; format: cell-based, human; conditions: for GI50: Homo sapiens, MCF7, read-out: Breast MCF-7 GI50
Experimental: as §3

BXPC-3 = experiment: cells; format: cell-based, human; conditions: for GI50: Homo sapiens, read-out: Pancreas BXPC-3 GI50
Experimental: as §3

KM20L2 = experiment: cells; format: cell-based, human; conditions: for GI50: Homo sapiens, KM-20L2, read-out: Colon KM20L2 GI50
Experimental: as §3

DU145 = experiment: cells; format: cell-based, human; conditions: for GI50: Homo sapiens, DU-145, read-out: Prostate DU145 GI50
Experimental: as §3

[7] = tested on: human cancer cell lines and murine P388; experiment: cells; format: cell-based; conditions: for IC50: Mus musculus, P388, mean over the cell lines of Table 2, read-out: Mean
Experimental: as §3

[8] = tested on: Cryptococcus neoformans ATCC 90112; experiment: Broth microdilution assay, Cryptococcus neoformans; format: cell-based; conditions: ATCC90112
Source text: as §2

[9] = tested on: Streptococcus pneumoniae ATCC 6303; experiment: Broth microdilution assay, Streptococcus pneumoniae; format: cell-based; conditions: ATCC6303
Source text: as §2

[10] = tested on: MCF-7 breast cancer cells; experiment: Inhibition of growth of MCF-7 breast cancer cells (sulforhodamine B); format: cell-based, human
Experimental: as §3

[11] = tested on: MCF-7 breast cancer cells; experiment: Mitotic index of MCF-7 cells; format: cell-based, human; conditions: 16 h at 10 times the IC50 concentration; without drug 2.9%
Experimental: as §3

Compound	water solubility (in words) [4]	Leukemia P388 ED50 [6] [µg/mL]	Lung-NSC NCI-H460 GI50 (NCI-H460) [µg/mL]	CNS SF-295 GI50 (SF-295) [µg/mL]	Breast MCF-7 GI50 (MCF-7) [µg/mL]	Pancreas BXPC-3 GI50 (BXPC-3) [µg/mL]	Colon KM20L2 GI50 (KM20L2) [µg/mL]	Prostate DU145 GI50 (DU145) [µg/mL]	IC50 [7] [µg/mL]	inhibition of mini-panel of human cancer cell lines (in words) [7]	GI50 (NCI-H460) [µg/mL]	GI50 (SF-295) [µg/mL]	GI50 (MCF-7) [µg/mL]	GI50 (BXPC-3) [µg/mL]	GI50 (KM20L2) [µg/mL]	GI50 (DU145) [µg/mL]	also measured
COc1ccc(C=Cc2cc(OC)c(OC)c(OC)c2)cc1O [Compound 2g, combretastatin A-4]	–	–	–	–	–	–	–	–	–	–	–	–	–	–	–	–	Inhibition of colchicine binding % Inhibition ± SD ([1]; 2 μM inhibitor): 98 ± 0.4%; Inhibition of vinblastine binding % Inhibition ± SD ([2]; 10 μM inhibitor): 0%; Inhibition of vinblastine binding % Inhibition ± SD ([2]; 80 μM inhibitor): 0%; IC50 (Bovine brain tubulin): […]
COc1ccc(/C=C\c2cc(OC)c3c(c2)OCO3)cc1NC(=O)[C@@H](N)Cc1ccc(OP(=O)(O)O)cc1 [Compound 3a, 3,4-Methylenedioxy-5,4′-dimethoxy-3′-(O-phosphoryl-N^α-L-Tyr)-amido-Z-stilbene]	only sparing water solubility	>10	>1	>1	>1	>1	>1	>1	–	–	–	–	–	–	–	–	MIC [3]: 64 µg/mL (≈ 118 µM); Solubility [4]: <100 µg/mL; MIC [5]: 0.125 µg/mL (≈ 0.23 µM)
COc1ccc(/C=C\c2cc(OC)c3c(c2)OCO3)cc1NC(=O)[C@H](Cc1ccc(OP(=O)(OCc2ccccc2)OCc2ccccc2)cc1)NC(=O)OCc1ccccc1 [Compound 8, 3,4-Methylenedioxy-5,4′-dimethoxy-3′-(O-bis-benzylphosphoryl-N^α-Z-L-Tyr)-amido-Z-stilbene]	–	0.133	>10	>10	>10	>10	>10	>10	–	–	–	–	–	–	–	–	MIC [3]: 64 µg/mL (≈ 74.7 µM)
COc1ccc(/C=C\c2cc(OC)c3c(c2)OCO3)cc1NC(=O)[C@@H](N)Cc1ccc(O)cc1.Cl [Compound 9, 3,4-Methylenedioxy-5,4′-dimethoxy-3′-(N^α-L-Tyr)-amido-Z-stilbene hydrochloride]	only sparing water solubility	0.0329	–	–	–	–	–	–	0.059	strongly inhibiting	0.096	0.064	0.041	0.064	0.034	0.08	solubility [4]: < 100 µg/mL; Solubility ([4]; hydrochloride): <100 µg/mL; melting point: 169 to 170.5 °C
COc1ccc(/C=C\c2cc(OC)c3c(c2)OCO3)cc1NC(=O)[C@@H](N)CC(=O)[O-].[Na+] [Compound 11, Sodium 3,4-methylenedioxy-5,4′-dimethoxy-3′-(N^α-L-Asp)-amido-Z-stilbene]	only sparing water solubility	0.361	–	–	–	–	–	–	0.33	–	0.3	0.25	0.51	0.38	0.19	0.33	Solubility [4]: <100 µg/mL; solubility [4]: < 100 µg/mL; melting point: 168 to 170 °C
COc1ccc(/C=C\c2cc(OC)c3c(c2)OCO3)cc1NC(=O)[C@H](C)[C@@H](OC)[C@@H]1CCCN1C(=O)OC(C)(C)C [Compound 13, 3,4-Methylenedioxy-5,4′-dimethoxy-3′-(N^α-Boc-L-Dap)-amido-Z-stilbene]	–	0.225	–	–	–	–	–	–	0.7 (≈ 1.23 µM)	–	0.52 (≈ 0.914 µM)	0.75 (≈ 1.32 µM)	0.53 (≈ 0.932 µM)	0.58 (≈ 1.02 µM)	1.9 (≈ 3.34 µM)	0.38 (≈ 0.668 µM)	MIC [8]: 64 µg/mL (≈ 113 µM)
COc1ccc(/C=C\c2cc(OC)c3c(c2)OCO3)cc1NC(=O)[C@H](C)[C@@H](OC)[C@@H]1CCCN1 [Compound 14, 3,4-Methylenedioxy-5,4′-dimethoxy-3′-(N^α-L-Dap)-amido-Z-stilbene TFA salt]	–	0.0263	–	–	–	–	–	–	0.11	strongly inhibiting	0.083	0.062	0.054	0.23	0.26	0.07	MIC [8]: 64 µg/mL; MIC ([3]; ATCC29212, read-out: MIC): 32 to 64 µg/mL; MIC [9]: 8 to 16 µg/mL; MIC ([5]; ATCC49226, read-out: MIC): 16 µg/mL
CC[C@H](C)[C@@H]([C@@H](CC(=O)N1CCC[C@H]1[C@H](OC)[C@@H](C)C(=O)Nc1cc(/C=C\c2cc(OC)c3c(c2)OCO3)ccc1OC)OC)N(C)C(=O)[C@@H](NC(=O)[C@H](C(C)C)N(C)C)C(C)C [Compound 16, 3,4-Methylenedioxy-5,4′-dimethoxy-3′-(Dov-Val-Dil-Dap)-amido-Z-stilbene]	–	<0.01	0.033	0.025	0.0031	0.048	0.020	0.032	–	strongly inhibiting	–	–	–	–	–	–	Inhibition of colchicine binding % Inhibition ± SD ([1]; 50 μM inhibitor): 30 ± 2%; IC50 ([10]; MCF-7, read-out: Inhibition of growth of MCF-7 breast cancer cells IC50 (nM) ± SD): 17 nM; times as active as hydrochloride 1b, MCF-7 cells ([10]; relative to 1b): ~4 times; activity as fraction of D-10 (4a), MCF-7 cells ([10]; relative to 4a): 1/200; Inhibition of vinblastine binding % Inhibition ± SD ([2]; 10 μM inhibitor): 48 ± 3%; Inhibition of vinblastine binding % Inhibition ± SD ([2]; 80 μM inhibitor): 87 ± 2%; IC50 (Bovine brain tubulin): 1.3 ± 0.04 µM; Mitotic index of MCF-7 cells % Mitoses [11]: 57%
